Measured values published in patent publication US20250281462A1, “THERAPEUTICALLY EFFECTIVE ORAL ADMINISTRATION OF A 2 ARYLBENZIMIDAZOLE” (Tranquis Therapeutics, Inc., priority 2021, published 2025).
Entries after “also recorded” stand apart in the source; their conditions may differ.

Assays:
[1] = background statement; cited from earlier work
[2] = test system: older mice; settings: oral 25 mg/kg; cited from earlier work
[3] = Phase 1 single ascending dose (SAD) trial, plasma pharmacokinetics (Part 1); settings: human; for Frel AUC(0-inf)/D / Frel AUC(0-last)/D / Frel Cmax/D: dose normalized comparison to Regimen C 540 mg MC; for AUC(0-t) / AUC(0-inf) / Cmax / half-life / Tmax: male, in vivo, po, single dose; for AUC(0-t) / AUC(0-inf) / Cmax / Tmax: human plasma; for half-life: T1/2, human plasma; for Tmax: median
[4] = test system: IL-6; assay: LPS-induced IL-6 secretion from BV2 cells (CBA assay); format: cell-based, murine; settings: 1-20 μM
Description: Lipopolysaccharide (LPS) is a natural ligand of the TLR4/CD14 complex, which is highly expressed on myeloid cells
LPS was used to induce cytokine secretion from BV-2 cells. Cells were incubated with TQS-168 at various concentrations to assess whether TQS-168 could suppress the LPS-promoted release of various cytokines from in vitro cell cultures. Cytokine secretion was measured by cytometric bead array (CBA) fluorescence-activated cell sorting (FACS).
Briefly, a vial of BV2 frozen stock (1 million cells per ml in complete medium) was thawed into 10 mL of complete medium per vial for a total of 4 vials. The vials were then centrifuged at 1800 rpm for 3 minutes to wash away freezing media. The four vials were then pooled into 25 mL of complete medium. TQS-168 was prepared in DMSO.
Cells were incubated for 24 hours in the presence of medium (negative control), LPS (positive control), DMSO+LPS (positive control, controlling additionally for presence of DMSO in the TQS-168 stock solution), or LPS+TQS-168 at final concentrations of 1 μM, 5 μM, 10 μM, and 20 μM.
After the well plates were incubated overnight for 24 hours, they were centrifuged at 1800 rpm for 5 minutes. Next, 150 μl from each well was transferred to a new set of plates, of which 50 μl was used for CBA. […]

[5] = 90 mg SDD, fasted (Regimen G) versus fed (Regimen F)
[6] = 180 mg HME (Regimen E) compared to MC counterpart (Regimen B)
[7] = 180 mg SDD (Regimen D) compared to MC counterpart (Regimen B)
[8] = MC formulation, 60 mg to 540 mg TQS-168 (9-fold increase in dose)
[9] = MC formulation, 180 mg to 540 mg TQS-168 (3-fold increase in dose)
[10] = SDD fasted, 270 mg (Regimen H) vs 90 mg (Regimen G)
[11] = SDD fasted, 270 mg (Regimen H) vs 180 mg (Regimen D)
[12] = Regimen D 180 mg SDD, geometric mean
[13] = Regimen E 180 mg HME, comparison to Regimen D 180 mg SDD, geometric mean
[14] = Regimen E 180 mg HME, geometric mean
[15] = 60 mg, Regimen A: 60 mg TQS-168 MC oral suspension, fasted, geometric mean
[16] = 60 mg, Regimen A: 60 mg TQS-168 MC oral suspension, fasted
[17] = 90 mg, Regimen F: 90 mg TQS-168 SDD oral suspension, fed (high fat breakfast), geometric mean
[18] = 90 mg, Regimen G: 90 mg TQS-168 SDD oral suspension, fasted, geometric mean
[19] = 90 mg, Regimen G: 90 mg TQS-168 SDD oral suspension, fasted
[20] = 180 mg, Regimen B: 180 mg TQS-168 MC oral suspension, fasted, geometric mean
[21] = 180 mg, Regimen D: 180 mg TQS-168 SDD oral suspension, fasted, geometric mean
[22] = 180 mg, Regimen E: 180 mg TQS-168 HME oral suspension, fasted, geometric mean
[23] = 180 mg, Regimen B: 180 mg TQS-168 MC oral suspension, fasted
[24] = 180 mg, Regimen D: 180 mg TQS-168 SDD oral suspension, fasted
[25] = 180 mg, Regimen E: 180 mg TQS-168 HME oral suspension, fasted
[26] = 270 mg, Regimen H: 270 mg TQS-168 SDD oral suspension, fasted, geometric mean
[27] = 270 mg, Regimen H: 270 mg TQS-168 SDD oral suspension, fasted
[28] = 540 mg, Regimen C: 540 mg TQS-168 MC oral suspension, fasted, geometric mean
[29] = 540 mg, Regimen C: 540 mg TQS-168 MC oral suspension, fasted

For `CC(C)(C)c1ccc(-c2nc3ccccc3[nH]2)cc1` [TQS-168, 2-(4-tert-butylphenyl)-1H-benzimidazole], the solubility [1] is listed as “highly insoluble”, the behavioral dysfunction [2] is listed as “alleviate behavioral dysfunction” and the “inflammatory cytokine production in microglia” value [2] is listed as “inhibit inflammatory cytokine production in microglia”. The “metabolic dysfunction in microglia” value [2] was “suppress metabolic dysfunction in microglia”, the systemic inflammation [2] was “suppress systemic inflammation” and the “increase in AUC(0-inf)” value [3, 5] was roughly 14%. For the same compound, the “increase in Cmax” value [3, 5] was “approximately 136%”, the “fold increase in geometric mean AUC(0-inf)” value [3, 6] was 2.06 fold and the “fold increase in geometric mean AUC(0-last)” value [3, 6] was 2.14 fold. The “fold increase in geometric mean Cmax” value [3, 6] was 2.32 fold, the “fold increase in geometric mean AUC(0-inf)” value [3, 7] was 3.45 fold and the “fold increase in geometric mean AUC(0-last)” value [3, 7] was 3.64 fold. For the same compound, the “fold increase in geometric mean Cmax” value [3, 7] was 4.11 fold, the “fold increase in AUC(0-24)” value [3, 8] was 20.2 fold and the “fold increase in AUC(0-inf)” value [3, 8] was 21.2 fold. The “fold increase in Cmax” value [3, 8] was 12.1 fold, the “fold increase in AUC(0-24)” value [3, 9] was 8.8 fold and the “fold increase in AUC(0-inf)” value [3, 9] was 9.5 fold. For the same compound, the “fold increase in Cmax” value [3, 9] was 6.1 fold, the “fold increase in AUC(0-inf)” value [3, 10] was 4.29 fold and the “fold increase in Cmax” value [3, 10] was 2.14 fold. The “increase in AUC(0-inf)” value [3, 11] was roughly 26%, the “increase in Cmax” value [3, 11] was “approximately 8.7%” and the “Frel AUC(0-inf)/D” value [3, 12] was 118%. For the same compound, the “Frel AUC(0-last)/D” value [3, 12] was 120%, the “Frel Cmax/D” value [3, 12] was 218% and the “Frel AUC(0-inf)” value [3, 13] was 59.6%. For the same compound, the “Frel AUC(0-last)” value [3, 13] was 58.9%, the “Frel Cmax” value [3, 13] was 56.6% and the “Frel AUC(0-inf)/D” value [3, 14] was 70.4%. The “Frel AUC(0-last)/D” value [3, 14] was 70.9%, the “Frel Cmax/D” value [3, 14] was 124% and the AUC(0-t) ([3]; 60 mg, AUC(0-24), Regimen A: 60 mg TQS-168 MC oral suspension, fasted, geometric mean) was 71.2 ng·h/mL. For the same compound, the AUC(0-inf) [3, 15] was 72.7 ng·h/mL, the AUC(0-t) ([3]; 60 mg, AUC(0-last), Regimen A: 60 mg TQS-168 MC oral suspension, fasted, geometric mean) was 67.6 ng·h/mL and the Cmax [3, 16] was 110 nM. For the same compound, the Cmax [3, 15] was 26.7 ng/mL, the half-life [3, 15] was 3.06 h and the Tmax [3, 16] was 1 h. The AUC(0-t) ([3]; 90 mg, AUC(0-24), Regimen F: 90 mg TQS-168 SDD oral suspension, fed (high fat breakfast), geometric mean) was 168 ng·h/mL, the AUC(0-t) ([3]; 90 mg, AUC(0-24), Regimen G: 90 mg TQS-168 SDD oral suspension, fasted, geometric mean) was 192 ng·h/mL and the AUC(0-inf) [3, 17] was 171 ng·h/mL. For the same compound, the AUC(0-inf) [3, 18] was 195 ng·h/mL, the AUC(0-t) ([3]; 90 mg, AUC(0-last), Regimen F: 90 mg TQS-168 SDD oral suspension, fed (high fat breakfast), geometric mean) was 166 ng·h/mL and the AUC(0-t) ([3]; 90 mg, AUC(0-last), Regimen G: 90 mg TQS-168 SDD oral suspension, fasted, geometric mean) was 189 ng·h/mL. The Cmax [3, 17] was 47.1 ng/mL, the Cmax ([3]; 90 mg, Regimen F: 90 mg TQS-168 SDD oral suspension, fed) was 190 nM and the Cmax [3, 19] was 440 nM. It also gave a Cmax [3, 18] of 111 ng/mL, a half-life [3, 17] of 3.52 h and a half-life [3, 18] of 4.85 h. It also gave a Tmax ([3]; 90 mg, Regimen F: 90 mg TQS-168 SDD oral suspension, fed (high fat breakfast)) of 1.5 h, a Tmax [3, 19] of 0.5 h and an AUC(0-t) ([3]; 180 mg, AUC(0-24), Regimen B: 180 mg TQS-168 MC oral suspension, fasted, geometric mean) of 163 ng·h/mL. It also gave an AUC(0-t) ([3]; 180 mg, AUC(0-24), Regimen D: 180 mg TQS-168 SDD oral suspension, fasted, geometric mean) of 608 ng·h/mL, an AUC(0-t) ([3]; 180 mg, AUC(0-24), Regimen E: 180 mg TQS-168 HME oral suspension, fasted, geometric mean) of 358 ng·h/mL and an AUC(0-inf) [3, 20] of 180 ng·h/mL. For the same compound, the AUC(0-inf) [3, 21] was 621 ng·h/mL, the AUC(0-inf) [3, 22] was 370 ng·h/mL and the AUC(0-t) ([3]; 180 mg, AUC(0-last), Regimen B: 180 mg TQS-168 MC oral suspension, fasted, geometric mean) was 168 ng·h/mL. For the same compound, the AUC(0-t) ([3]; 180 mg, AUC(0-last), Regimen D: 180 mg TQS-168 SDD oral suspension, fasted, geometric mean) was 611 ng·h/mL, the AUC(0-t) ([3]; 180 mg, AUC(0-last), Regimen E: 180 mg TQS-168 HME oral suspension, fasted, geometric mean) was 360 ng·h/mL and the Cmax [3, 23] was 210 nM. It also gave a Cmax [3, 20] of 53.1 ng/mL, a Cmax [3, 24] of 870 nM and a Cmax [3, 21] of 218 ng/mL. The Cmax [3, 25] was 490 nM, the Cmax [3, 22] was 123 ng/mL and the half-life [3, 20] was 7.36 h. The half-life [3, 21] was 5.64 h, the half-life [3, 22] was 7.25 h and the Tmax [3, 23] was 1 h. It also gave a Tmax [3, 24] of 1 h, a Tmax [3, 25] of 1.5 h and an AUC(0-t) ([3]; 270 mg, AUC(0-24), Regimen H: 270 mg TQS-168 SDD oral suspension, fasted, geometric mean) of 736 ng·h/mL. It also gave an AUC(0-inf) [3, 26] of 836 ng·h/mL, an AUC(0-t) ([3]; 270 mg, AUC(0-last), Regimen H: 270 mg TQS-168 SDD oral suspension, fasted, geometric mean) of 801 ng·h/mL and a Cmax [3, 27] of 950 nM. For the same compound, the Cmax [3, 26] was 237 ng/mL, the half-life [3, 26] was 10.4 h and the Tmax [3, 27] was 1.5 h. The AUC(0-t) ([3]; 540 mg, AUC(0-24), Regimen C: 540 mg TQS-168 MC oral suspension, fasted, geometric mean) was 1440 ng·h/mL, the AUC(0-inf) [3, 28] was 1600 ng·h/mL and the AUC(0-t) ([3]; 540 mg, AUC(0-last), Regimen C: 540 mg TQS-168 MC oral suspension, fasted, geometric mean) was 1540 ng·h/mL. It also gave a Cmax [3, 29] of 1290 nM, a Cmax [3, 28] of 323 ng/mL and a half-life [3, 28] of 10.1 h. For the same compound, the Tmax [3, 29] was 2.25 h and the “reduction of LPS-induced IL-6 secretion, dose response” value [4] was “concentration-dependent; also recorded: dose-responsive inhibition”.
